Source: patent publication US6355799B1, “Substituted benzene compounds, process for their preparation, and herbicidal and defoliant compositions containing them” (ISK Americas Incorporated, priority 1997, dated 2002)

Tests used:
Assay type in all cases: in vivo
[1] = test system: upland rice (Oryza sp., var. Tebonnet, RICE); experiment: Post-emerge test, crop safety; conditions: phytotoxicity rating 0-100 (0 no damage, 100 complete death), 14 days after application
Summary of the method: (§1)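 Visual ratings on a 0-100 scale (0 no damage, 100 all plants dead) were taken at 14 days after treatment. Rates of 15-1000 g ai/ha in acetone, 187 l/ha, were sprayed onto soil one day after planting (pre-emerge) or onto 2-3 leaf plants with 0.25% v/v surfactant (post-emerge).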

[2] = test system: field corn (Zea mays L., var. Dekalb 535, CORN); experiment: Post-emerge test, crop safety; conditions: phytotoxicity rating 0-100 (0 no damage, 100 complete death), 14 days after application
Summary of the method: as §1

[3] = test system: large crabgrass (Digitaria sanguinalis, DIGSA); experiment: Post-emerge test, greenhouse herbicide activity screening; conditions: phytotoxicity rating 0-100 (0 no damage, 100 complete death), 14 days after application
Summary of the method: (§2)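 Rating: 0–100 visual injury, 14 DAA. Application: acetone, 187 l/ha, 15–1000 g ai/ha, flat-fan track sprayer with nozzle 40–45 cm above soil or canopy. Post-emerge runs used 0.25% v/v surfactant on 2–3 leaf plants.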

[4] = test system: lambsquarters (Chenopodium album, CHEAL); experiment: as above; conditions: phytotoxicity rating 0-100 (0 no damage, 100 complete death), 14 days after application
Summary of the method: as §2

[5] = test system: green foxtail (Setaria viridis, SETVI); experiment: as above; conditions: phytotoxicity rating 0-100 (0 no damage, 100 complete death), 14 days after application
Summary of the method: as §2

[6] = test system: redroot pigweed (Amaranthus retroflexus, AMARE); experiment: as above; conditions: phytotoxicity rating 0-100 (0 no damage, 100 complete death), 14 days after application
Summary of the method: as §2

[7] = test system: johnsongrass (Sorghum halepense, SORHA); experiment: as above; conditions: phytotoxicity rating 0-100 (0 no damage, 100 complete death), 14 days after application
Summary of the method: as §2

[8] = test system: ivyleaf morningglory (Ipomoea hederacea, IPOHE); experiment: as above; conditions: phytotoxicity rating 0-100 (0 no damage, 100 complete death), 14 days after application
Summary of the method: as §2

[9] = test system: barnyardgrass (Echinochloa crus-galli, ECHCG); experiment: as above; conditions: phytotoxicity rating 0-100 (0 no damage, 100 complete death), 14 days after application
Summary of the method: as §2

[10] = test system: velvetleaf (Abutilon theophrasti, ABUTH); experiment: as above; conditions: phytotoxicity rating 0-100 (0 no damage, 100 complete death), 14 days after application
Summary of the method: as §2

[11] = test system: upland rice (Oryza sp., var. Tebonnet, RICE); experiment: Pre-emerge test, crop safety; conditions: pre-emerge, rated 14 days after application, 0 = no damage, 100 = complete death
Summary of the method: as §1

[12] = test system: field corn (Zea mays L., var. Dekalb 535, CORN); experiment: Pre-emerge test, crop safety; conditions: pre-emerge, rated 14 days after application, 0 = no damage, 100 = complete death
Summary of the method: as §1

[13] = test system: large crabgrass (Digitaria sanguinalis, DIGSA); experiment: Pre-emerge test, greenhouse herbicide activity screening; conditions: pre-emerge, rated 14 days after application, 0 = no damage, 100 = complete death
Summary of the method: as §1

[14] = test system: lambsquarters (Chenopodium album, CHEAL); experiment: as above; conditions: pre-emerge, rated 14 days after application, 0 = no damage, 100 = complete death
Summary of the method: as §1

[15] = test system: green foxtail (Setaria viridis, SETVI); experiment: as above; conditions: pre-emerge, rated 14 days after application, 0 = no damage, 100 = complete death
Summary of the method: as §1

[16] = test system: johnsongrass (Sorghum halepense, SORHA); experiment: as above; conditions: pre-emerge, rated 14 days after application, 0 = no damage, 100 = complete death
Summary of the method: as §1

[17] = test system: ivyleaf morningglory (Ipomoea hederacea, IPOHE); experiment: as above; conditions: pre-emerge, rated 14 days after application, 0 = no damage, 100 = complete death
Summary of the method: as §1

[18] = test system: barnyardgrass (Echinochloa crus-galli, ECHCG); experiment: as above; conditions: pre-emerge, rated 14 days after application, 0 = no damage, 100 = complete death
Summary of the method: as §1

[19] = test system: sicklepod (Cassia obtusifolia, CASOB); experiment: as above; conditions: pre-emerge, rated 14 days after application, 0 = no damage, 100 = complete death
Summary of the method: as §1

[20] = test system: velvetleaf (Abutilon theophrasti, ABUTH); experiment: as above; conditions: pre-emerge, rated 14 days after application, 0 = no damage, 100 = complete death
Summary of the method: as §1

[21] = test system: redroot pigweed (Amaranthus retroflexus, AMARE); experiment: as above; conditions: pre-emerge, rated 14 days after application, 0 = no damage, 100 = complete death
Summary of the method: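 Compounds in acetone were track-sprayed at 15-1000 g ai/ha (187 l/ha) on sandy loam pots: pre-emerge one day after seeding, post-emerge at 2-3 leaf stage with 0.25% v/v non-ionic surfactant. Phytotoxicity was rated 14 days later on a 0 (no damage) to 100 (complete death) scale.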

Cn1c(C(F)(F)F)cc(=O)n(-c2c(F)cc(Cl)c(OCC#N)c2NC(=O)C(F)(F)F)c1=O [2-11]
30: Post-emerge Herbicidal Activity AMARE ([6]; 250 g ai/ha) | Pre-emerge Herbicidal Activity AMARE (phytotoxicity rating, scale 0-100) ([21]; 63 g ai/ha)
40: Post-emerge Herbicidal Activity CHEAL ([4]; 63 g ai/ha) | Pre-emerge Herbicidal Activity ECHCG (phytotoxicity rating, scale 0-100) ([18]; 250 g ai/ha)
70: Pre-emerge Herbicidal Activity IPOHE (phytotoxicity rating, scale 0-100) ([17]; 63 g ai/ha)
20: Post-emerge Herbicidal Activity SETVI ([5]; 250 g ai/ha)
0: Post-emerge Herbicidal Activity RICE (crop damage) ([1]; 63 g ai/ha) | Post-emerge Herbicidal Activity RICE (crop damage) ([1]; 250 g ai/ha) | Post-emerge Herbicidal Activity DIGSA ([3]; 63 g ai/ha) | Post-emerge Herbicidal Activity DIGSA ([3]; 250 g ai/ha) | Post-emerge Herbicidal Activity SETVI ([5]; 63 g ai/ha) | Post-emerge Herbicidal Activity AMARE ([6]; 63 g ai/ha) | Post-emerge Herbicidal Activity SORHA ([7]; 63 g ai/ha) | Post-emerge Herbicidal Activity SORHA ([7]; 250 g ai/ha) | Post-emerge Herbicidal Activity ECHCG ([9]; 63 g ai/ha) | Post-emerge Herbicidal Activity ECHCG ([9]; 250 g ai/ha) | Pre-emerge crop damage CORN (phytotoxicity rating, scale 0-100) ([12]; 63 g ai/ha) | Pre-emerge Herbicidal Activity DIGSA (phytotoxicity rating, scale 0-100) ([13]; 63 g ai/ha) | Pre-emerge Herbicidal Activity SETVI (phytotoxicity rating, scale 0-100) ([15]; 63 g ai/ha) | Pre-emerge Herbicidal Activity SORHA (phytotoxicity rating, scale 0-100) ([16]; 63 g ai/ha) | Pre-emerge Herbicidal Activity ECHCG (phytotoxicity rating, scale 0-100) ([18]; 63 g ai/ha) | Pre-emerge Herbicidal Activity CASOB (phytotoxicity rating, scale 0-100) ([19]; 63 g ai/ha)
10: Pre-emerge crop damage RICE (phytotoxicity rating, scale 0-100) ([11]; 63 g ai/ha) | Pre-emerge crop damage CORN (phytotoxicity rating, scale 0-100) ([12]; 250 g ai/ha)
5: Post-emerge Herbicidal Activity CORN (crop damage) ([2]; 63 g ai/ha) | Post-emerge Herbicidal Activity CORN (crop damage) ([2]; 250 g ai/ha)
80: Post-emerge Herbicidal Activity ABUTH ([10]; 63 g ai/ha)
65: Post-emerge Herbicidal Activity CHEAL ([4]; 250 g ai/ha)
100: Post-emerge Herbicidal Activity ABUTH ([10]; 250 g ai/ha) | Pre-emerge Herbicidal Activity CHEAL (phytotoxicity rating, scale 0-100) ([14]; 63 g ai/ha) | Pre-emerge Herbicidal Activity CHEAL (phytotoxicity rating, scale 0-100) ([14]; 250 g ai/ha) | Pre-emerge Herbicidal Activity SETVI (phytotoxicity rating, scale 0-100) ([15]; 250 g ai/ha) | Pre-emerge Herbicidal Activity IPOHE (phytotoxicity rating, scale 0-100) ([17]; 250 g ai/ha) | Pre-emerge Herbicidal Activity ABUTH (phytotoxicity rating, scale 0-100) ([20]; 250 g ai/ha) | Pre-emerge Herbicidal Activity AMARE (phytotoxicity rating, scale 0-100) ([21]; 250 g ai/ha)
90: Pre-emerge Herbicidal Activity ABUTH (phytotoxicity rating, scale 0-100) ([20]; 63 g ai/ha)
50: Post-emerge Herbicidal Activity IPOHE ([8]; 63 g ai/ha) | Pre-emerge crop damage RICE (phytotoxicity rating, scale 0-100) ([11]; 250 g ai/ha) | Pre-emerge Herbicidal Activity SORHA (phytotoxicity rating, scale 0-100) ([16]; 250 g ai/ha)
60: Post-emerge Herbicidal Activity IPOHE ([8]; 250 g ai/ha) | Pre-emerge Herbicidal Activity DIGSA (phytotoxicity rating, scale 0-100) ([13]; 250 g ai/ha) | Pre-emerge Herbicidal Activity CASOB (phytotoxicity rating, scale 0-100) ([19]; 250 g ai/ha)

C=Cc1ccc(C(=O)Nc2c(OC)c(Cl)cc(F)c2-n2c(=O)cc(C(F)(F)F)n(C)c2=O)cc1 [2-31]
70: Post-emerge Herbicidal Activity RICE (crop damage) ([1]; 250 g ai/ha)
80: Post-emerge Herbicidal Activity CHEAL ([4]; 63 g ai/ha)
50: Post-emerge Herbicidal Activity RICE (crop damage) ([1]; 63 g ai/ha)
60: Post-emerge Herbicidal Activity CORN (crop damage) ([2]; 250 g ai/ha) | Pre-emerge Herbicidal Activity SORHA (phytotoxicity rating, scale 0-100) ([16]; 63 g ai/ha)
95: Post-emerge Herbicidal Activity CHEAL ([4]; 250 g ai/ha)
40: Post-emerge Herbicidal Activity CORN (crop damage) ([2]; 63 g ai/ha) | Post-emerge Herbicidal Activity ECHCG ([9]; 250 g ai/ha) | Pre-emerge crop damage RICE (phytotoxicity rating, scale 0-100) ([11]; 63 g ai/ha) | Pre-emerge crop damage CORN (phytotoxicity rating, scale 0-100) ([12]; 250 g ai/ha) | Pre-emerge Herbicidal Activity ECHCG (phytotoxicity rating, scale 0-100) ([18]; 63 g ai/ha)
90: Post-emerge Herbicidal Activity AMARE ([6]; 250 g ai/ha) | Post-emerge Herbicidal Activity IPOHE ([8]; 63 g ai/ha) | Pre-emerge crop damage RICE (phytotoxicity rating, scale 0-100) ([11]; 250 g ai/ha) | Pre-emerge Herbicidal Activity DIGSA (phytotoxicity rating, scale 0-100) ([13]; 63 g ai/ha)
0: Post-emerge Herbicidal Activity DIGSA ([3]; 63 g ai/ha)
30: Post-emerge Herbicidal Activity SORHA ([7]; 250 g ai/ha)
20: Post-emerge Herbicidal Activity DIGSA ([3]; 250 g ai/ha) | Post-emerge Herbicidal Activity SETVI ([5]; 250 g ai/ha) | Pre-emerge crop damage CORN (phytotoxicity rating, scale 0-100) ([12]; 63 g ai/ha)
100: Post-emerge Herbicidal Activity AMARE ([6]; 63 g ai/ha) | Post-emerge Herbicidal Activity IPOHE ([8]; 250 g ai/ha) | Post-emerge Herbicidal Activity ABUTH ([10]; 63 g ai/ha) | Post-emerge Herbicidal Activity ABUTH ([10]; 250 g ai/ha) | Pre-emerge Herbicidal Activity DIGSA (phytotoxicity rating, scale 0-100) ([13]; 250 g ai/ha) | Pre-emerge Herbicidal Activity CHEAL (phytotoxicity rating, scale 0-100) ([14]; 63 g ai/ha) | Pre-emerge Herbicidal Activity CHEAL (phytotoxicity rating, scale 0-100) ([14]; 250 g ai/ha) | Pre-emerge Herbicidal Activity SETVI (phytotoxicity rating, scale 0-100) ([15]; 63 g ai/ha) | Pre-emerge Herbicidal Activity SETVI (phytotoxicity rating, scale 0-100) ([15]; 250 g ai/ha) | Pre-emerge Herbicidal Activity IPOHE (phytotoxicity rating, scale 0-100) ([17]; 63 g ai/ha) | Pre-emerge Herbicidal Activity IPOHE (phytotoxicity rating, scale 0-100) ([17]; 250 g ai/ha) | Pre-emerge Herbicidal Activity ECHCG (phytotoxicity rating, scale 0-100) ([18]; 250 g ai/ha) | Pre-emerge Herbicidal Activity CASOB (phytotoxicity rating, scale 0-100) ([19]; 63 g ai/ha) | Pre-emerge Herbicidal Activity CASOB (phytotoxicity rating, scale 0-100) ([19]; 250 g ai/ha) | Pre-emerge Herbicidal Activity ABUTH (phytotoxicity rating, scale 0-100) ([20]; 63 g ai/ha) | Pre-emerge Herbicidal Activity ABUTH (phytotoxicity rating, scale 0-100) ([20]; 250 g ai/ha) | Pre-emerge Herbicidal Activity AMARE (phytotoxicity rating, scale 0-100) ([21]; 63 g ai/ha) | Pre-emerge Herbicidal Activity AMARE (phytotoxicity rating, scale 0-100) ([21]; 250 g ai/ha)
85: Pre-emerge Herbicidal Activity SORHA (phytotoxicity rating, scale 0-100) ([16]; 250 g ai/ha)
10: Post-emerge Herbicidal Activity SETVI ([5]; 63 g ai/ha) | Post-emerge Herbicidal Activity SORHA ([7]; 63 g ai/ha) | Post-emerge Herbicidal Activity ECHCG ([9]; 63 g ai/ha)
